Here are results for two compounds from ChEMBL document CHEMBL5653615 (J Biol Chem, 2013).

The species named for experiment [1] is Homo sapiens. The experiment can be described thus: Inhibition of human CDK2/cyclin A at 1.82 nM by HotSpot assay relative to control.
Experiment [2] concerns the target RAC-beta serine/threonine-protein kinase (Homo sapiens) (UniProt P31751). Briefly: Inhibition of human AKT2 at 1.82 nM by HotSpot assay relative to control.
The target in experiment [3] is T1, Serine/threonine-protein kinase NLK (Homo sapiens) (UniProt Q9UBE8).
T1 sequence (whole entry): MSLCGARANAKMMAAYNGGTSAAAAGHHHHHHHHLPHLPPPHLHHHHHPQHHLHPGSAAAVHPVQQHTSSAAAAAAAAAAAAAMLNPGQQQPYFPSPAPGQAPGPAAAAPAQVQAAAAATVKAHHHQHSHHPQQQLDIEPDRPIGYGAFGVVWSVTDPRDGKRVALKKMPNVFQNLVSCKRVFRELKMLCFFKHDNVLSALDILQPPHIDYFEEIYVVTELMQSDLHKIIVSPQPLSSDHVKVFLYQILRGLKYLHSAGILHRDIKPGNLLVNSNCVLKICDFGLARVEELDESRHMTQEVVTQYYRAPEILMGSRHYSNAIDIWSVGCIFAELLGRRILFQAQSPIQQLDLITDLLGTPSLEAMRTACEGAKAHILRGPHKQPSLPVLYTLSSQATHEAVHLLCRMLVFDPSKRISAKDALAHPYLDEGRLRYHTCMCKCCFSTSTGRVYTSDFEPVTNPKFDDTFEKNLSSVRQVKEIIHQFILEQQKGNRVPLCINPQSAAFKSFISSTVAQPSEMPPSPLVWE
Briefly: Inhibition of human NLK at 18.6 nM by HotSpot assay relative to control.

The target in experiment [4] is Serine/threonine-protein kinase B-raf (Homo sapiens) (UniProt P15056). Briefly: Inhibition of human BRAF at 18.6 nM by HotSpot assay relative to control.
Sequence of Serine/threonine-protein kinase B-raf (Homo sapiens) (P15056 whole entry): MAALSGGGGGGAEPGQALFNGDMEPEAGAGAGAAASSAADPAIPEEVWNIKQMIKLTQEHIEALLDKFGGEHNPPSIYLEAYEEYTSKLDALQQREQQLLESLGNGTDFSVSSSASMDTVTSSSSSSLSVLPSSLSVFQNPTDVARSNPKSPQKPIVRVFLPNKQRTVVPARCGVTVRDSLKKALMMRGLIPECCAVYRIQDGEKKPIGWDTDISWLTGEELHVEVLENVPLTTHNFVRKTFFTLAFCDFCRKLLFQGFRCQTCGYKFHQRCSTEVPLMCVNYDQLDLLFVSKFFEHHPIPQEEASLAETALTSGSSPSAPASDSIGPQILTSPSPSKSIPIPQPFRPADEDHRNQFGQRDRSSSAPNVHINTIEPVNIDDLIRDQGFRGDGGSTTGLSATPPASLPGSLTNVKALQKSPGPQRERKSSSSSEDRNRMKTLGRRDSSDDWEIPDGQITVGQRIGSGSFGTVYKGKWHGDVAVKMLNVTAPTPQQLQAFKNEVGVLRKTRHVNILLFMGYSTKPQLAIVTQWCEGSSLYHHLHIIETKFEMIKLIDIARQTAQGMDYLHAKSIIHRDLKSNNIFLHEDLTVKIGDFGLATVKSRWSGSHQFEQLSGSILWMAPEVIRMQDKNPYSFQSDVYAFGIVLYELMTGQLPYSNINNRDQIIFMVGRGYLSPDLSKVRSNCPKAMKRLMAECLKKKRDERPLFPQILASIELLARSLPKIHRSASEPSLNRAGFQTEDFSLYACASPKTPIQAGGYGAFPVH
Experiment [5] addresses T2, Dual specificity tyrosine-phosphorylation-regulated kinase 4 (Homo sapiens) (UniProt Q9NR20).
T2 sequence (whole entry): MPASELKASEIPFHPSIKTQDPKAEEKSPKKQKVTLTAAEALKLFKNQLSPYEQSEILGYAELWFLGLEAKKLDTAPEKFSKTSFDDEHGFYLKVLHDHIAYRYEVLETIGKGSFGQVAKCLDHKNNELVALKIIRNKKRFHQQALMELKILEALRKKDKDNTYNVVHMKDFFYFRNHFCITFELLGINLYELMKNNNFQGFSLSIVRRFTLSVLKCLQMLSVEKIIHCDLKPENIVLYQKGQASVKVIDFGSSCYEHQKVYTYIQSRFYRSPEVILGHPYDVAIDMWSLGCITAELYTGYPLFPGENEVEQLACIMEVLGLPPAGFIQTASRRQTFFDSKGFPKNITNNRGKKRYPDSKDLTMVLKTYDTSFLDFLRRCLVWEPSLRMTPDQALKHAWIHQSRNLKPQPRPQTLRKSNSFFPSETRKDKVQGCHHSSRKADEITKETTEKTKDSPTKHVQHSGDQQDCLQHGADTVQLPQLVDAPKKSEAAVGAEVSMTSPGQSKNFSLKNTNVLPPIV
The experiment can be described thus: Inhibition of human DYRK4 at 18.6 nM by HotSpot assay relative to control.

In experiment [6] the target is Dual specificity protein kinase CLK2 (Homo sapiens) (UniProt P49760). The experiment can be described thus: Inhibition of human CLK2 at 18.6 nM by HotSpot assay relative to control.
Sequence of Dual specificity protein kinase CLK2 (Homo sapiens) (P49760 whole entry, looked up): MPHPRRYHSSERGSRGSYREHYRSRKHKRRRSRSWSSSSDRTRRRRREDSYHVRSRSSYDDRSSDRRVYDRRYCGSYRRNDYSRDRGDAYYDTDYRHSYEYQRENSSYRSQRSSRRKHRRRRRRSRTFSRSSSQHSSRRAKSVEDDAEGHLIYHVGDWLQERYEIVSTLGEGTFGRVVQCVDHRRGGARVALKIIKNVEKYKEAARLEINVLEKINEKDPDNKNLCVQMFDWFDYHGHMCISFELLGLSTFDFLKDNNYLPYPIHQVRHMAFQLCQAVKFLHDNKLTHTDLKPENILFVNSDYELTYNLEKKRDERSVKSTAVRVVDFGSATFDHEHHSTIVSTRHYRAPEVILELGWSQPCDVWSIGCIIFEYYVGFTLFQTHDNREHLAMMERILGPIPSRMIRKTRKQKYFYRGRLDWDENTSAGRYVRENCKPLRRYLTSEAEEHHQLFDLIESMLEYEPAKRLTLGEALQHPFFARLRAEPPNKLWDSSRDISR
The target in experiment [7] is T3, Mitogen-activated protein kinase kinase kinase 5 (Homo sapiens) (UniProt Q99683).
T3 sequence (whole entry): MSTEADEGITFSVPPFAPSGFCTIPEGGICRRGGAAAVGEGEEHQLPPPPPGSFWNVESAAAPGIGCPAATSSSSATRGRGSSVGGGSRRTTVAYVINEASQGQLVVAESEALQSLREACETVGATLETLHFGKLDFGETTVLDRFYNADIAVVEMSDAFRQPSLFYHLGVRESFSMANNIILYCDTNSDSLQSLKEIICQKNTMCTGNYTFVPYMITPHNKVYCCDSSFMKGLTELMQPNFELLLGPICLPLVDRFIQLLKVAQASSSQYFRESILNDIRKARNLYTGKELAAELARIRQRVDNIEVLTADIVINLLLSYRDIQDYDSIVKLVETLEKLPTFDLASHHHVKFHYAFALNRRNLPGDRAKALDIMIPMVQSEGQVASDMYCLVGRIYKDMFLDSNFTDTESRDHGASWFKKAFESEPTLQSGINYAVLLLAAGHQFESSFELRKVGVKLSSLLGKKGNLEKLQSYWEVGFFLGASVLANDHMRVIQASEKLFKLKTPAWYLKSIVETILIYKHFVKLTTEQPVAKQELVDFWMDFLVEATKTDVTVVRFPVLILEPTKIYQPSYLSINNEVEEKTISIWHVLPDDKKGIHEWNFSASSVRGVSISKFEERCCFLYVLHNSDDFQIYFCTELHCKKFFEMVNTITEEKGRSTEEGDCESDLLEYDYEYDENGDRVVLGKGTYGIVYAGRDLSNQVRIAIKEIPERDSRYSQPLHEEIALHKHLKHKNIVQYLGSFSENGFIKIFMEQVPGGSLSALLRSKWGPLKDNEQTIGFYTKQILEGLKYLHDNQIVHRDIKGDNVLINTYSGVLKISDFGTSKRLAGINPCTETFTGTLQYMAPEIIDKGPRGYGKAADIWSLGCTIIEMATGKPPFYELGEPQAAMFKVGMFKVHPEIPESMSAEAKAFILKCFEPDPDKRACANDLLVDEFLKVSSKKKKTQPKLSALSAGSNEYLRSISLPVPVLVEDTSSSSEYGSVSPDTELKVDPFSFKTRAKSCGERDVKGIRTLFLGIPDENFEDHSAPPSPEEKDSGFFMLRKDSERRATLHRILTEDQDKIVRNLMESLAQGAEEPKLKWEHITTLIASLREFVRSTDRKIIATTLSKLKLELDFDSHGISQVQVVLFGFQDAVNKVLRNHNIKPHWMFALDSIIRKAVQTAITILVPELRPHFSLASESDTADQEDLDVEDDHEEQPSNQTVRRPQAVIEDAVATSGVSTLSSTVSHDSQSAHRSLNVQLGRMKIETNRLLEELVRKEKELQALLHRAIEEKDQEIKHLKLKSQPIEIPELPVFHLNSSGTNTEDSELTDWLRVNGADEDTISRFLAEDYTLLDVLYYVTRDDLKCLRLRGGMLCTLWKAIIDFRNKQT
Briefly: Inhibition of human ASK1 at 18.6 nM by HotSpot assay relative to control.

Sequence of RAC-beta serine/threonine-protein kinase (Homo sapiens) (P31751 whole entry): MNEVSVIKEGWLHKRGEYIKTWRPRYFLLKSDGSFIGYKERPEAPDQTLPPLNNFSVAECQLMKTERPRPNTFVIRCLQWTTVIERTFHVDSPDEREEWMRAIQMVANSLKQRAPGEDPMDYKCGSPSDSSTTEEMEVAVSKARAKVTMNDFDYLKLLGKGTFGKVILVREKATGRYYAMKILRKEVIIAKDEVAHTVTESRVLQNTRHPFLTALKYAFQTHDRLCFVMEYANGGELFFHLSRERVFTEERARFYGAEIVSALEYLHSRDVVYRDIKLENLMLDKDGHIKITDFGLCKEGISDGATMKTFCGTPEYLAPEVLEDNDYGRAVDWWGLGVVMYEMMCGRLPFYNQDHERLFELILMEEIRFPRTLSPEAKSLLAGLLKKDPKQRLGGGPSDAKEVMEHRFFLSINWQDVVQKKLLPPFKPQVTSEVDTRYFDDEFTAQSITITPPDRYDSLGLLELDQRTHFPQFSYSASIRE

As usually defined, the inhibition is the change of the read-out against control, counted positive when it falls. As for `C[C@@]1(C(=O)Nc2ccc(F)nc2)CCCN1c1nc(Nc2cc(C3CC3)n[nH]2)c2cccn2n1`, the inhibition was 0.69% in experiment [1] and -0.4% in experiment [2].

With `C[C@]1(O)C[C@@H](c2nc(-c3ccc4ccc(-c5ccccc5)nc4c3)c3c(N)nccn32)C1`, the inhibition is -1.35% in experiment [3]; 7.79% in experiment [4]; -1.52% in experiment [5]; 4.4% in experiment [6]; -8.46% in experiment [7].
